Results on five molecules are retold here after patent publication US9920387B2, “Strain of marine oil-degrading bacteria, compounds obtained by fermentation and their applications” (THIRD INSTITUTE OF OCEANOGRAPHY,STATE OCEANIC ADMINISTRATION, priority 2014, dated 2018).

Data set [1] has as its system normal hepatocytes 7702. Briefly: Cytotoxic activity test, Cell Counting Kit-8. The note with it: 100 ug/ml, 48 hours. It counts as cell-based. An excerpt: (§1) Cytotoxic activity test method: measure cytotoxic activity using a Cell Counting Kit-8 (CCK-8 kit for short and of Dojindo Laboratories, Japan), namely, […]. The human CCK octapeptide ELISA is a quick high-sensitivity detection kit based on WST-8 and widely applied to cell proliferation and cytotoxic activity. WST-8 is a compound similar to the MTT. With the presence of electronic coupling reagent, WST-8 can be reduced by some dehydrogenases in mitochondria and produce orange formazan. The more and faster the cell proliferation is, the deeper the color; the greater the cytotoxicity is, the lighter the color. For the same cells, the color depth has a linear relationship with the number of cells. Solvent DMSO is used in control group, and pure lysine ester produced by strain Alcanivorax dieselolei T6-6 dissolved in DMSO are used in experimental group. Cells are hepatoma cells 7402 and normal hepatocytes 7702 (available from Sino-US Joint Venture Biohermes Biomedical Technology Ltd). Medicinal concentration is 100 ug/ml, and operation is taken according to kit instruction, with each step repeated three times. After medication, […] is detected in cellular fluid after culturing for 48 hours. Cell toxicity results are shown in Table 8: The medicine-to-cell suppression rate=[negative group (DMSO)−experimental group (dosed)]/negative group (DMSO). […] Accordingly, the active substances of lysine ester generated by the strain Alcanivorax dieselolei T6-6 have better cytotoxic activity.
In general terms: Tetrazolium assays rely on reduction of a dye to a coloured formazan, in cell work by metabolically active cells.

Data set [2] relates to hepatoma cells 7402. Briefly: Cytotoxic activity test, Cell Counting Kit-8. The note with it: 100 ug/ml, 48 hours. It counts as cell-based.
Text: as §1

The nature of data set [3]: Liquid surface tension (automatic interfacial tensiometer). Format: physicochemical. Here is the method: Test method of liquid surface tension: Inoculate the Alcanivorax dieselolei T6-6 single bacterium into MSM medium on clean workbench (with 2% n-hexadecane as the sole carbon source), and culture it in constant temperature air bath shaker incubator (28° C., 200 rpm/min) until thalli obviously grow (about 3 to 5 days), during which take out 10 ml fermentation liquid every 24 hours, and measure its surface tension values using automatic interfacial tensiometer (Manufacturer: Chengde Precision Testing Machine Co., Ltd; Model: JZ-200-a automatic interface tensiometer). […] (For refrigeration of supernatant and hydrophobic layer stratified after centrifugation, the surface tension should be measured when it gets to the room temperature. Thus, the result is comparability and credibility). When measuring liquid surface tension, pour 10 ml fermentation liquid of A. dieselolei T6-6 at temperature of 25° C. into a weighing cup, place the weighing cup in the center of the tray, press “▴” to make the platinum ring deep into 5 mm to 7 mm in the liquid, press “●” to stop; if the peak needs to be kept, firstly press “peak” button, and then press “▾”, the display value will increase gradually, and finally stay at the maximum; this maximum value is the actually measured value of surface tension of liquid, and then press “●” to stop, after the maximum value is recorded, press “reset” button. […]

A short description of data set [4]: Oil expansion activity at different temperatures and pH values. It counts as physicochemical. The protocol: Determination method of biosurfactant oil expansion activity: Take a culture dish, add water, and add 0.1 ml hexadecane on the water surface to form oil film. Add the fermentation liquid from the shake flask to the center of oil film to make the central film squeezed to form a circle, the diameter of which positively correlates to the concentration and activity of the biosurfactant. Strains with cycle diameter more than 3 cm are retained for further study. Set pH value in the range of 2 to 10 to determine effect of pH on lysine ester produced by the strain Alcanivorax dieselolei T6-6. Oil expansion diameter varies from 3.6 to 3.9 for lysine ester produced by the strain Alcanivorax dieselolei T6-6 with small fluctuation. It has a good acid and base resistance, and the activity is the highest at pH=8. Considering the structure, it can be inferred that this material is alkaline. And also, when adding a few drops of ammonia expansion on the running TLC plate, the substance will expand more fully, which also proves that it is alkaline.
Treat the pure lysine ester produced by strain Alcanivorax dieselolei T6-6 at temperatures of 20° C., 40° C., 60° C., 80° C. and 100° C. for one hour, and then determine its activity. […] Good thermal stability makes it possible for the substance to be used in high temperature fields.

For data set [5], the system named is E. coli. DH5 alpha. Briefly: Antibacterial activity, filter paper method. Format: cell-based. The note with it: bacteriostasis experiment. An excerpt: (§2) Antibacterial activity test method: use filter paper method to detect antibacterial activity of biosurfactant produced by fermentation of strain Alcanivorax dieselolei T6-6. The indicator bacteria are Gram-negative bacteria, Gram-positive bacteria, endophytic pathogenic fungus in tea tree and yeasts. Specific steps: coat the well-shaken indicator bacteria on the culture plate, stick filter paper on each scribe region, and drip surfactant on filter paper. The control group is the methanol solvent of same amount. After bacteria are inverted cultured in constant temperature incubation at 28° C. for a certain period (different indicator bacteria have different growth cycles; bacteria grow quickly, but endophytic fungus in tea tree should grow 3-5 days), and observe the results to detect inhibition zone. If there is an inhibition zone, its size should be measured.
(§3) DH5 alpha, aeromonas hydrophila and Campbell vibrio.

Data set [6] relates to aeromonas hydrophila. The data set can be described thus: Antibacterial activity, filter paper method. Particulars: bacteriostasis experiment. It counts as cell-based.
Text: as §2, §3

The test system of data set [7] is Campbell vibrio. Briefly: Antibacterial activity, filter paper method. It counts as cell-based. Particulars: bacteriostasis experiment.
Text: as §2, §3

Data set [8] has as its system Bacillus plakortidis. Briefly: Antibacterial activity, filter paper method. Format: cell-based. The note with it: 28° C.
Text: as §2

The subject of data set [9] is Phomaexigua var. exigua. Briefly: Antibacterial activity, filter paper method. It counts as cell-based. Particulars: 28° C.
Text: as §2

In data set [10] the test system is Bacillus rhizosphaerae. The data set can be described thus: Antibacterial activity, filter paper method. It counts as cell-based. Particulars: 28° C.
Text: as §2

The test system of data set [11] is Ornithinibacillus bavariensis. Briefly: Antibacterial activity, filter paper method. It counts as cell-based. Particulars: 28° C.
Text: as §2

Data set [12] has as its system Rhodotorula mucilaginosa. Briefly: Antibacterial activity, filter paper method. It counts as cell-based. Particulars: 28° C.
Text: as §2

In data set [13] the test system is Bacillus thuringiensis. Briefly: Antibacterial activity, filter paper method. The note with it: 28° C. It counts as cell-based.
Text: as §2

Data set [14] relates to Lysinibacillus sphaericus. The data set can be described thus: Antibacterial activity, filter paper method. Format: cell-based. The note with it: 28° C.
Text: as §2

Data set [15] concerns Bacillus safensis. The data set can be described thus: Antibacterial activity, filter paper method. Format: cell-based. The note with it: 28° C.
Text: as §2

The subject of data set [16] is Pestalotiopsistheae. Briefly: Antibacterial activity, filter paper method. Format: cell-based. Particulars: 28° C.
Text: as §2

The nature of data set [17]: Determination of biosurfactant CMC values. Format: physicochemical. The note with it: for CMC: water solution. The source says:
Determination method of biosurfactant CMC values: prepare different concentrations of water solution from pure biosurfactants to be determined, and measure its surface tension with surface tension meter. With the increase of surface activity (concentration), the surface tension of water solution gradually […]. The surface tension stops decreasing when the concentration increases to a certain level. The amount of surfactant corresponding to this critical surface tension is CMC value.

Data set [18] in a line: Biosurfactant emulsifying property (emulsion stable value). Format: physicochemical. The protocol:
In order to understand the emulsifying activity of lysine ester produced by strain Alcanivorax dieselolei T6-6, we determined the emulsifying stability value of lysine ester produced by strain Alcanivorax dieselolei T6-6 and the chemical surfactants Tween 20 and Triton X-100 against olive oil, n-hexane, dimethylbenzene, hexadecane and petroleum ether. Determination method of biosurfactant emulsifying property: add 5 ml commercially available diesel No. 0 and 5 ml surfactant solution (1%) into a test tube, treat it with ultrasonic generator at 800 W for 40 s, and measure the emulsion and oil phase at different times (0 to 24 hours). Emulsion stable value (Es %)=emulsified layer height (cm)/oil phase height (cm)×100. […] Lysine ester produced by strains Alcanivorax dieselolei T6-6 has a good emulsifying activity (83±1%) on olive oil, and can maintain […] at room temperature. Its emulsifying activity on four other organics is also more than 75%. Good emulsifying activity makes it greatly valuable in environmental pollution control.

The nature of data set [19]: Determination of biosurfactant MAD (Minimum Active Dose) by oil expansion experiment. Format: physicochemical. An excerpt:
Determination method of biosurfactant MAD (Minimum Active Dose) values: prepare different concentrations of water solution from pure biosurfactants to be determined, and measure the oil expansion activity through oil expansion experiment. With the decrease of concentration, the oil expansion ability of water solution becomes weaker and weaker, and completely disappears when the concentration decreases to a certain level. The amount of surfactant at the time of oil expansion ability disappearing is the MAD value.

*1 amine or outer side, *2 acyl side, *3 side chain or, on linkers, in order; H or OH if unused. Where a SMILES comes first, the peptide text is derived from it. Bridges are numbered along the chain shown (N, C = ends). [ ]: non-standard residue; d: D form. X1 = CC(C)CCCCCCCCC[C@H](CC(=O)[*:1])O[*:2]

As for `CCCCCCCCCCCCCC1CC(=O)N1CCCCC(N)C(=O)O` (centres unmarked) [2-amino-6-(2-oxo-4-tridecyl-azetidine-1-yl) hexanoic acid], the medicine-to-cell suppression rate was determined as 67.32% in [1] and 92.74% in data set [2]. The “cell culture fluid OD600” value in data set [1] (DMSO control 0.863) came to 0.282; in data set [2] (DMSO control 1.667), 0.121. In addition, the “surface tension of water after adding component” value in [3] (300 ul unconcentrated surfactant added to 20 ml DDW, water alone 78.6) was found to be 32.3. The “surface tension reduced to” value in data set [3] (summary statement) was 26-28 mN m-1. Further, in data set [4] (oil expansion experiment, pH 2 to 10), the “pH of highest activity” value came out at 8. Moreover, the oil expansion diameter entry in [4] (treated at 121° C. for 15 minutes) is given as “about 3.5 cm”. For the same molecule, the suppression effect result in [5], in [6] and in data set [7] was “no suppression effect” in each case. In addition, the Inhibition zone in data set [8] came out at 13.7 mm; in [9], 16.3 mm; in data set [10], 10.4 mm; in data set [11] it was 14.2 mm; in data set [12] it was 12.1 mm; in data set [13] it was 7.2 mm. Moreover, the Inhibition zone in data set [14] was 11.7 mm; in [15] it was 10.9 mm; in data set [16], 10.19 mm. Besides, the CMC value in [17] (summary statement) is on record as 32 mg 1-1. In data set [17], this molecule had a CMC of 32 mg/L. In addition, in data set [18] (FIG. 12), the “emulsifying activity compared with Tween 20 and Triton X-100” value is listed as “higher emulsifying activity”. The “emulsifying activity (emulsion stable value)” value in [18] (four other organics (n-hexane, dimethylbenzene, hexadecane, petroleum ether)) is “more than 75%”; in [18] (olive oil), 83±1%. The “time emulsion is maintained” value in data set [18] (olive oil, room temperature) turned out to be 48 h. The MAD in data set [19] stood at 0.105 ± 0.05 µg.

For Triton X-100, the MAD in data set [19] was 0.3 ± 0.08 µg.

In [17], `CC(C)CCCCCCCCC[C@@H]1CC(=O)N[C@@H](CCC(=O)O)C(=O)N[C@@H](CC(C)C)C(=O)N[C@H](CC(C)C)C(=O)N[C@@H](C(C)C)C(=O)N[C@@H](CC(=O)O)C(=O)N[C@H](CC(C)C)C(=O)N[C@@H](CC(C)C)C(=O)O1` [Surfactin] (EL[dL]VD[dL]L; linker N-C via X1) had a CMC of 45 mg/L.

Rhamnolipid: in data set [17], the CMC turned out to be 50 mg/L.

The molecule `CCCCCCCCCCCCOS(=O)(=O)[O-].[Na+]` [SDS] returned a CMC in data set [17] of 23 mg/L. In data set [19], this molecule displayed an MAD of 6.0 ± 0.12 µg.
